From patent US11246929B2, “Combination of a protein kinase inhibitor and an additional chemotherapeutic agent” (Merck Patent GmbH, priority 2016, dated 2022)

What was measured:
Assay in all cases: SRB growth inhibition, 93 cell lines panel
Type in all cases: cell-based
COLO678 = settings: Homo sapiens, COLO-678; COLO678, colon; read-out: GI50 of etoposide (±Compound 1)
Procedure: (§1) 90 μl of cells, after a 48-hour pre-growth period, were treated by mixing with 10 μl of the compound-containing media (resulting in a final DMSO concentration of 0.1%).
(§2) This is the drug concentration causing a 50% reduction compared to the net protein increase in control cells during the drug incubation period. In other words, G150 is IC50 corrected for time zero. […] TGI was calculated from Ti=Tz. […] It was calculated as 100×[(Ti−Tz)/Tz]=−50.

NCIH460 = settings: Homo sapiens, NCI-H460; NCIH460, lung; read-out: GI50 of etoposide (±Compound 1)
Procedure: as §1, §2

786O = settings: Homo sapiens, 786-0, kidney, read-out: GI50 of etoposide (±Compound 1)
Procedure: as §1, §2

MINO = settings: Homo sapiens, hematological, read-out: GI50 of etoposide (±Compound 1)
Procedure: as §1, §2

HEK293 = settings: Homo sapiens; HEK293, kidney; read-out: GI50 of etoposide (±Compound 1)
Procedure: as §1, §2

TE671 = settings: Homo sapiens, TE-671; TE671, muscle; read-out: GI50 of etoposide (±Compound 1)
Procedure: as §1, §2

ASPC1 = settings: Homo sapiens; ASPC1, pancreas; read-out: GI50 of etoposide (±Compound 1)
Procedure: as §1, §2

ACHN = settings: Homo sapiens, kidney, read-out: GI50 of etoposide (±Compound 1)
Procedure: as §1, §2

EJ28 = settings: Homo sapiens, EJ-28; EJ28, bladder; read-out: GI50 of etoposide (±Compound 1)
Procedure: as §1, §2

RDES = settings: RD-ES, bone, read-out: GI50 of etoposide (±Compound 1)
Procedure: as §1, §2

K-562 = settings: Homo sapiens, K562; K-562, hematological; read-out: GI50 of etoposide (±Compound 1)
Procedure: as §1, §2

DU145 = settings: Homo sapiens, DU-145; DU145, prostate; read-out: GI50 of etoposide (±Compound 1)
Procedure: as §1, §2

CLS439 = settings: CLS439, bladder; read-out: GI50 of etoposide (±Compound 1)
Procedure: as §1, §2

SU-DHL-6 = settings: Homo sapiens; SU-DHL-6, hematological; read-out: GI50 of etoposide (±Compound 1)
Procedure: as §1, §2

SKMEL5 = settings: Homo sapiens, SK-MEL-5; SKMEL5, skin; read-out: GI50 of etoposide (±Compound 1)
Procedure: as §1, §2

KASUMI-1 = settings: Homo sapiens; KASUMI-1, hematological; read-out: GI50 of etoposide (±Compound 1)
Procedure: as §1, §2

A2780 = settings: Homo sapiens; A2780, ovary; read-out: GI50 of etoposide (±Compound 1)
Procedure: as §1, §2

152OS = settings: bone, read-out: GI50 of etoposide (±Compound 1)
Procedure: as §1, §2

SW620 = settings: Homo sapiens, SW-620; SW620, colon; read-out: GI50 of etoposide (±Compound 1)
Procedure: as §1, §2

BT20 = settings: Homo sapiens, BT-20; BT20, breast; read-out: GI50 of etoposide (±Compound 1)
Procedure: as §1, §2

WS15-NHL = settings: hematological, read-out: GI50 of etoposide (±Compound 1)
Procedure: as §1, §2

SAOS2 = settings: Homo sapiens, SAOS-2; SAOS2, bone; read-out: GI50 of etoposide (±Compound 1)
Procedure: as §1, §2

15O31 = settings: 15O31, kidney; read-out: GI50 of etoposide (±Compound 1)
Procedure: as §1, §2

A673 = settings: Homo sapiens; A673, muscle; read-out: GI50 of etoposide (±Compound 1)
Procedure: as §1, §2

MDAMB435 = settings: Homo sapiens, MDA-MB-435; MDAMB435, skin; read-out: GI50 of etoposide (±Compound 1)
Procedure: as §1, §2

IMR90 = settings: Homo sapiens, IMR-90; IMR90, lung; read-out: GI50 of etoposide (±Compound 1)
Procedure: as §1, §2

L-363 = settings: Homo sapiens; L-363, hematological; read-out: GI50 of etoposide (±Compound 1)
Procedure: as §1, §2

CASKI = settings: Homo sapiens, Ca-Ski, cervix, read-out: GI50 of etoposide (±Compound 1)
Procedure: as §1, §2

CALU6 = settings: Homo sapiens, Calu-6; CALU6, lung; read-out: GI50 of etoposide (±Compound 1)
Procedure: as §1, §2

PANC1005 = settings: Homo sapiens; PANC1005, pancreas; read-out: GI50 of etoposide (±Compound 1)
Procedure: as §1, §2

HS578T = settings: Homo sapiens, Hs-578T, breast, read-out: GI50 of etoposide (±Compound 1)
Procedure: as §1, §2

## COc1cc([C@@H]2c3cc4c(cc3[C@@H](O[C@@H]3O[C@@H]5CO[C@@H](C)O[C@H]5[C@H](O)[C@H]3O)[C@H]3COC(=O)[C@H]23)OCO4)cc(OC)c1O [Etoposide]
COLO678
  GI50: 10800 nM
NCIH460
  GI50: 167 nM
786O
  GI50: 928 nM
MINO
  GI50: 236 nM
HEK293
  GI50: 190 nM
TE671
  GI50: 1150 nM
ASPC1
  GI50: > 10000 nM
ACHN
  GI50: 714 nM
EJ28
  GI50: 440 nM
RDES
  GI50: 412 nM
K-562
  GI50: 277 nM
DU145
  GI50: 701 nM
CLS439
  GI50: 965 nM
SU-DHL-6
  GI50: 665 nM
SKMEL5
  GI50: 558 nM
KASUMI-1
  GI50: 494 nM
A2780
  GI50: 62 nM
152OS
  GI50: 1080 nM
SW620
  GI50: 302 nM
BT20
  GI50: 73 nM
WS15-NHL
  GI50: 149 nM
SAOS2
  GI50: 1460 nM
15O31
  GI50: 7910 nM
A673
  GI50: 1080 nM
MDAMB435
  GI50: 1140 nM
IMR90
  GI50: 704 nM
L-363
  GI50: 327 nM
CASKI
  GI50: 1450 nM
CALU6
  GI50: 3650 nM
PANC1005
  GI50: 2730 nM
HS578T
  GI50: 874 nM
